Consider three compounds from patent publication US10399981B2, “Crystal form A of 7-(cyclopropylmethyl)-1-(((cis )-4-hydroxy-4-methylcyclohexyl)methyl)-3-methyl-1H-purine-2,6-(3H,7H)-dione for treating liver diseases” (GUANGDONG RAYNOVENT BIOTECH CO., LTD., priority 2015, dated 2019).

Data set [1] in a line: Evaluation on pharmacokinetics of compound in SD rats. Type of data set: in vivo. To be noted: male, Sprague-Dawley, rat, plasma; for clearance / AUC / half-life: single intravenous injection and oral administration; for clearance: read-out: Clearance rate; for AUC: read-out: Concentration integral AUC; for half-life: read-out: Half life T1/2 (converted). The protocol:
Experimental objective: To test the pharmacokinetics of a compound in SD rats
Experimental materials: Sprague Dawley rats (male, 200-300 g, 7-9 weeks old, Shanghai SLAC)
Pharmacokinetic characteristics of rodents after intravenous injection and oral administration of the compound were tested using a standard scheme. In the experiment, a candidate compound was prepared into a clear solution, which was administrated to rats by single intravenous injection and oral administration. The solvent for intravenous injection and oral administration is water solution or normal saline solution of hydroxypropyl 3 cyclodextrin at a certain proportion. A whole blood sample was collected within 24 hours, and 3000 g of the sample was centrifuged for 15 minutes. The supernatant was separated to obtain blood plasma samples, to which 4 times volume of an acetonitrile solution containing an internal standard substance was added to precipitate protein. After centrifuging, the supernatant was collected, equivalent volume of water was added, the resulting solution was recentrifuged, and the supernatant was collected for sample injection. The blood concentration was quantitatively analyzed by LC-MS/MS, and the pharmacokinetic parameters were calculated, such as peak concentration, time to peak, clearance rate, half life, area under the curve and bioavailability.

The next data set deals with LPS-induced TNF-α. The experiment in a line: In vitro influence of compound on LPS-induced TNF-α in blood (ELISA). Type of data set: cell-based, Sprague Dawley rats. The conditions noted are these: rat blood, compound 100 uM, 5 h. The protocol:
Experimental objective: to detect the influence of compound on LPS-induced TNF-α in blood of […] in vitro, and to evaluate inhibiting effects of the compound on LPS-induced TNF-α in blood of […].
Sprague Dawley rats (male, 210-260 g, 8-10 weeks old, Shanghai SLAC)
Rat TNF-alpha Quantikine ELISA Kit (R&D, #SRTA00)
The solution of compound to-be-detected at a concentration of 1 mM was prepared, and 40 μL (final concentration of the compound: 100 uM) was respectively added to a 48-well cell culture plate. After rats were anesthetized with isoflurane, blood samples were collected from their hearts (heparin anticoagulation). The blood was added to the to-be-detected compound present in the 48-well plate with 320 μL/well. The 48-well plate was incubated in a cell incubator for 30 min. Then 40 μL of LPS solution (100 ug/ml) was added, and fully mixed. The plate was further incubated in the incubator. 5 h later, the 48-well plate was taken out. The blood samples were transferred to 1.5 ml centrifuge tubes, and centrifuged in a centrifuge (4,500 rpm, 4° C., 5 minutes). The supernatant was separated to obtain blood plasma, which was subpackaged, quickly frozen, and kept in a refrigerator at −80° C. On the next day, the TNF-α levels in blood plasma samples were detected using an R&D ELISA kit.
For orientation: In an ELISA, binding on a coated surface is turned into a signal by an enzyme label.

In data set [2] the target is T1, recombinant full-length human PDE2A protein (Homo sapiens, UniProt O00408).
T1 construct: A recombinant full-length human PDE2A protein; GST (N); made in house; host or cells: Sf9 insect cells (baculovirus)
T1 sequence (O00408 whole entry): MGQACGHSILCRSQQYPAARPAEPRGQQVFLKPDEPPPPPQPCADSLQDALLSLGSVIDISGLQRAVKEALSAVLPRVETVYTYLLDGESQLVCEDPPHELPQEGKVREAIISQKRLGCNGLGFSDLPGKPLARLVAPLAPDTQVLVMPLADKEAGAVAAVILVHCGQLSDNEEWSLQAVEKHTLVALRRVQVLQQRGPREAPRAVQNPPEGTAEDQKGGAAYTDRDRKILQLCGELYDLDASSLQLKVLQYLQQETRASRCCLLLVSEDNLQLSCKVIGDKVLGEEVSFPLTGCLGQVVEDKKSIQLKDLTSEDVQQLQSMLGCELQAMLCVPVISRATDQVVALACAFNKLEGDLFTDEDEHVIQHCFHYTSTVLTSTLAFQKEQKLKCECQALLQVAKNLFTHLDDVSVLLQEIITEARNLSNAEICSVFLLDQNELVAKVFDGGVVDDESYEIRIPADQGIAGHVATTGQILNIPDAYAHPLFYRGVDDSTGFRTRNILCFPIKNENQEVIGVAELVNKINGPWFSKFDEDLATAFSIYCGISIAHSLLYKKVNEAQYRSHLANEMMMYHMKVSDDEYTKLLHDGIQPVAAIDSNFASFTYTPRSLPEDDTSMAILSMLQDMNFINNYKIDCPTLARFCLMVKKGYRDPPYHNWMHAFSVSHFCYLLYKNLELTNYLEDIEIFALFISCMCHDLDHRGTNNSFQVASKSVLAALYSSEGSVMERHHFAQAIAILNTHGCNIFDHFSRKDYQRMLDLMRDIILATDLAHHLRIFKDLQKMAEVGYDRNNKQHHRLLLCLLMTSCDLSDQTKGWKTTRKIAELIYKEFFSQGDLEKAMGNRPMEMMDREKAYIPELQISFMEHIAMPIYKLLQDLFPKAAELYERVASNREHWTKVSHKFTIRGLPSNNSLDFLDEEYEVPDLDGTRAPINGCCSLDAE
The data set can be described thus: In vitro evaluation on inhibition activities of PDE2 phosphodiesterase (fluorescence polarization, Transcreener AMP2/GMP2). The conditions noted are these: substrate 1 μM cGMP. The class given is biochemical. The protocol: Experimental objective: the concentrations of AMP/GMP generated in the reaction system was detected by detecting a substituted AlexaFluor 633 fluorochrome on AMP/GMP antibodies through fluorescence polarization analysis, and IC50 of PDE2 phosphodiesterase against compound to be detected was calculated.
Buffer solution for determination: 10 mM Tris-HCl, pH 7.5, 5 mM MgCl2, 0.01% Brij 35, 1 mM DTT, and 1% DMSO.
Enzyme: A recombinant full-length human PDE2A protein was expressed by baculovirus in Sf9 insect cells using an N-terminal GST tag
Transcreener® AMP^2/GMP^2 antibody, AMP2/GMP2 AlexaFluor 633 fluorochrome
An enzyme solution was prepared from a freshly prepared buffer solution, and then added to a reaction cavity, a DMSO solution of compound to-be-detected was added through an Echo550 contactless nanoliter pipetting system, and then the resulting solution was preincubated for 10 min at room temperature. A substrate (1 μM cGMP) was added to initiate reaction, which was kept at room temperature for 1 h. […] Fluorescence polarization was detected using Ex/Em 620/688.
Fluorescence polarization intensity was converted to nM concentration through AMP/GMP standard curves, then relative enzymatic activity inhibition was calculated compared with DMSO blank control, and IC50 and curve thereof was calculated using Prism software package (GraphPad Software, San Diego Calif., USA).
(In general: Polarisation of emitted light reports the rotation of a fluorescent probe.)

Data set [3] can be described thus: Stability test of crystal form A solid (accelerated, 40° C./75% humidity, open). The class given is physicochemical. The protocol:
A crystal form A was put in an open container at a constant temperature and humidity for accelerated test respectively at 40° C./75% humidity (open). Samples were collected in 1st, 2nd and 3rd months and tested, and the test results were compared with the initial test results on 0th day.

Data set [4] is described as follows: Solubility of crystal form A in different solvents. To be noted: thermodynamic from solid, room temperature. The class given is physicochemical. The protocol: About 2 mg of crystal form A was weighed put in a 1.5 mL liquid phase vial, to which the following solvents were respectively added by pipettes by stages to dissolve the crystal form A while manually vibrating.

Setting [5] is: 40° C./75% humidity (open), 1 month.
Where [6] appears, read: 40° C./75% humidity (open), 2 months.
[7] abbreviates: 40° C./75% humidity (open), 3 months.

Structures are written as SMILES. ≈ marks a conversion by molar mass, not a printed value. Some results are limits rather than exact numbers.

For orientation: bioavailability means the share of a dose that reaches the circulation, judged against a reference dose that is usually intravenous. Usually IC50 stands for the concentration needed to halve the response being measured. In the case of `Cn1c(=O)n(C[C@H]2CC[C@@](C)(O)CC2)c(=O)c2c1ncn2CC1CC1` [Compound (I), 7-(cyclopropylmethyl)-1-(((cis)-4-hydroxy-4-methylcyclohexyl)methyl)-3-methyl-1H-purine-2,6-(3H, 7H)-dione], in data set [1] (oral administration, read-out: Bioavailability F), the bioavailability was 47.9%. In data set [1], the clearance is 54.4 mL/min/kg, the AUC was 4.39 µM·h and the half-life is 47.6 min. Moreover, the “TNF-α Inhibition Ratio” value in the data set with LPS-induced TNF-α is “++ (80% ≤ “++” < 100%)”. Also, in data set [2], the IC50 was 1 to 10 µM.
By solubility is commonly meant the dissolved amount per volume that the medium holds. `Cn1c(=O)n(C[C@H]2CC[C@@](C)(O)CC2)c(=O)c2c1ncn2CC1CC1` [Crystal Form A, 7-(cyclopropylmethyl)-1-(((cis)-4-hydroxy-4-methylcyclohexyl)methyl)-3-methyl-1H-purine-2,6-(3H, 7H)-dione]: the Appearance result in data set [3] (setting [5]) was “White powder”; in data set [3] (setting [6]), “White powder”; in data set [3] (setting [7]) it was “White powder”; in data set [3] (Initial, 0 month) it was “White powder”. Also, the Content is recorded as 101.4% in data set [3] (setting [5]); 98.8% in data set [3] (setting [6]); 101.8% in data set [3] (setting [7]); 101.6% in data set [3] (Initial, 0 month). Besides, the “Total Impurities” value in data set [3] (setting [5]) came to 0.31%; in data set [3] (setting [6]), 0.34%; in data set [3] (setting [7]), 0.32%; in data set [3] (Initial, 0 month) it was 0.33%. For the same compound, the solubility is approximately 1 mg/mL (≈ 2.89 mM) in data set [4] (aqueous with cosolvent or surfactant or cyclodextrin, Acetone-water (1:2)); approximately 22.2 mg/mL (≈ 64.1 mM) in data set [4] (aqueous with cosolvent or surfactant or cyclodextrin, Acetonitrile-water (1:1)); approximately 16.3 mg/mL (≈ 47.1 mM) in data set [4] (aqueous with cosolvent or surfactant or cyclodextrin, Ethanol-water (1:1)); approximately 24.5 mg/mL (≈ 70.7 mM) in data set [4] (aqueous with cosolvent or surfactant or cyclodextrin, Ethanol-water (3:1)); approximately 17.3 mg/mL (≈ 49.9 mM) in data set [4] (aqueous with cosolvent or surfactant or cyclodextrin, Isopropanol-water (1:1)); approximately 7.8 mg/mL (≈ 22.5 mM) in data set [4] (aqueous with cosolvent or surfactant or cyclodextrin, Methanol-water (1:1)). The solubility in data set [4] (aqueous with cosolvent or surfactant or cyclodextrin, Methanol-water (3:1)) was approximately 19 mg/mL (≈ 54.8 mM); in data set [4] (organic solvent or mixture, 2-methyltetrahydrofuran), approximately 24.2 mg/mL (≈ 69.9 mM); in data set [4] (organic solvent or mixture, Acetone) it was approximately 17.2 mg/mL (≈ 49.6 mM); in data set [4] (organic solvent or mixture, Acetonitrile) it was approximately 13 mg/mL (≈ 37.5 mM); in data set [4] (organic solvent or mixture, Butanone), approximately 37.2 mg/mL (≈ 107 mM); in data set [4] (organic solvent or mixture, Cyclohexane), less than 1 mg/mL. The solubility is more than 57 mg/mL in data set [4] (organic solvent or mixture, Dioxane); approximately 11.2 mg/mL (≈ 32.3 mM) in data set [4] (organic solvent or mixture, Ethanol); approximately 15.2 mg/mL (≈ 43.9 mM) in data set [4] (organic solvent or mixture, Ethyl acetate); approximately 10.1 mg/mL (≈ 29.2 mM) in data set [4] (organic solvent or mixture, Isopropanol); approximately 12 mg/mL (≈ 34.6 mM) in data set [4] (organic solvent or mixture, Isopropyl acetate); approximately 28.7 mg/mL (≈ 82.8 mM) in data set [4] (organic solvent or mixture, Methanol). The solubility in data set [4] (organic solvent or mixture, Methyl isobutyl ketone) is approximately 10.9 mg/mL (≈ 31.5 mM); in data set [4] (organic solvent or mixture, Methyl tertiary butyl ether), approximately 2.6 mg/mL (≈ 7.51 mM); in data set [4] (organic solvent or mixture, Methylbenzene), less than 1 mg/mL; in data set [4] (organic solvent or mixture, Tetrahydrofuran) it was more than 67 mg/mL; in data set [4] (organic solvent or mixture, n-butanol), approximately 20.5 mg/mL (≈ 59.2 mM); in data set [4] (organic solvent or mixture, n-heptane) it was less than 1 mg/mL. Moreover, the solubility in data set [4] (Water) is less than 1 mg/mL.
In the case of `CC(=O)CCCCn1c(=O)c2c(ncn2C)n(C)c1=O` [Pentoxifylline, reference compound], in data set [1], the clearance is 74.1 mL/min/kg, the AUC was found to be 6.62 µM·h and the half-life was 11.5 min.
